Data published in paper PMC8247284 (Antiviral Research, 2021).

Key:
[1] = tested on: alpha- and beta-coronaviruses; assay: organism not typed; conditions: read-out: EC50 values against the various coronaviruses
SARS-CoV-2 [2] = type: cell-based
[3] = tested on: LC3 puncta (autophagy pathway); assay: High content analysis of cytoplasmic LC3 puncta in HEp-2 cells; type: cell-based, human; conditions: 3 h incubation, relative to untreated control
HCoV-229E = assay: Confocal microscopy of dsRNA, HCoV-229E-infected Huh7 cells; type: cell-based; conditions: dsRNA staining, 6 h
SARS-CoV-2 [4] = assay: Confocal microscopy of dsRNA, SARS-CoV-2-infected Huh7 cells; type: cell-based; conditions: chloroquine 5 μM, 6 h
[5] = tested on: LC3-positive puncta (autophagy); assay: Confocal microscopy of LC3 in Huh7 cells; type: cell-based, human; conditions: chloroquine 0.5, 5 and 50 μM, 6 h, infected and uninfected Huh7 cells

Compound `C=C[C@H]1C[N@@]2CC[C@H]1C[C@H]2[C@H](O)c1ccnc2ccc(OC)cc12` [Quinine, quinine] has an EC50 [1] greater than 13 µM.

`COc1cc(C)c2c(Oc3cccc(C(F)(F)F)c3)c(OC)cc(NC(C)CCCN)c2n1` (stereo not drawn) [Tafenoquine, tafenoquine] was tested, and the EC50 [1] was greater than 13 µM.

With `N#C[C@@]1(c2ccc3c(N)ncnn23)O[C@H](CO)[C@@H](O)[C@H]1O` [GS-441524] the “log reduction of the viral copy number” value (SARS-CoV-2 [2]) was 4.3 log.

For `COc1cc(NC(C)CCCN)c2ncccc2c1` (stereo not drawn) [Primaquine, primaquine], the EC50 [1] was greater than 13 µM.

`CCN(CCO)CCCC(C)Nc1ccnc2cc(Cl)ccc12` (stereo not drawn) [Hydroxychloroquine, hydroxychloroquine] was tested, and the EC50 [1] was 0.12 to 12 µM and the “increase of the intensity of cytoplasmic LC3 puncta” value [3] was 6 fold.

For `C=C[C@H]1C[N@@]2CC[C@H]1C[C@@H]2[C@@H](O)c1ccnc2ccc(OC)cc12` [Quinidine, quinidine], the EC50 [1] was greater than 13 µM.

`CCN(CC)CCCC(C)Nc1ccnc2cc(Cl)ccc12` (stereo not drawn) [Chloroquine, chloroquine] was tested, and the “concentration required to fully inhibit HCoV-229E replication” value (HCoV-229E) was 50 µM, the “viral RNA synthesis (dsRNA staining)” value (SARS-CoV-2 [4]) was “completely blocked” and the LC3-positive puncta [5] was “dose-dependent increase”. For the same compound, the EC50 [1] was 0.12 to 12 µM and the “increase of the intensity of cytoplasmic LC3 puncta” value [3] was 6 fold.
